Source: paper PMC7395068, “The evolution of strategies to minimise the risk of human drug-induced liver injury (DILI) in drug discovery and development” (Archives of Toxicology, 2020)
Read-outs that look alike come from different tables or passages of the source.

Tests used:
[1] = Plasma free fraction (fu) and unbound Cmax (Cmax,u); type: in vitro ADME, human; conditions: unbound plasma Cmax
Protocol: The prediction of DILI severity was evaluated further using the 3D combined HCI assays using plasma-free fraction. The majority of fu values were obtained from literature, when unavailable in-house prediction was utilised. Unbound plasma Cmax concentrations (Cmax,u) were derived by multiplying total plasma Cmax with the corresponding free fraction (fu) for each compound.

PHH 3D spheroids = test system: PHH 3D spheroids; parameters: method as in Bell et al. 2018; conditions: 14-day exposure, three donors, ref Bell et al. 2018; cited from earlier work
HepG2 = test system: HepG2; parameters: method as in Albrecht 2019; conditions: In vitro Assay; ref Albrecht 2019; cited from earlier work
[2] = cited from earlier work
[3] = test system: primary human hepatocytes, NIH3T3 fibroblasts, BSEP, CYP3A4; conditions: cited from earlier work; for DILI in vitro assay prediction, Schadt (2015): BSEP & Metabolism based, ref Schadt et al. 2015
HepG2 cells [4] = conditions: cited from earlier work
HepG2 cells [5] = conditions: cited from earlier work; remark: listed apart in the source
HepG2 cells [6] = conditions: cited from earlier work; remark: listed apart in the source
human hepatocytes = conditions: cited from earlier work
[7] = test system: THLE or HepG2 cells, isolated mitochondria, BSEP; conditions: cited from earlier work
PHH [8] = conditions: cited from earlier work
hLiMTs [9] = conditions: cited from earlier work
PHH spheroids = conditions: cited from earlier work
[10] = read-out: Human plasma Cmax; total plasma Cmax.tot, median of 9 literature references; cited from earlier work
[11] = plasma free fraction; cited from earlier work
[12] = cited from earlier work; remark: listed apart in the source
PHH [13] = conditions: In vitro Assay; ref Albrecht 2019; cited from earlier work
hu-MPCC = conditions: In vitro Assay; ref Khetani 2012; cited from earlier work
[14] = test system: THLE-Null and THLE-3A4 cells; conditions: In vitro Assay; ref Gustafsson 2014; cited from earlier work
[15] = test system: isolated mouse liver mitochondria; conditions: In vitro Assay; ref Porceddu 2012; cited from earlier work
[16] = in vivo; cited from earlier work
RMPCC's = conditions: In vitro Assay; ref Khetani 2012; cited from earlier work
hLiMTs [17] = assay: Combined HCI (HCS) and cellular ATP 3D assay in hLiMTs; conditions: for AC50 / minimal effective concentration: Homo sapiens; for DILI prediction hLiMTs (HCS-MEC): Microtissue model structural based (HCI), combined HCS and ATP, MEC < 25 × Cmax.tot cut-off; for hLiMTs <25x Avg Cmax ATP / hLiMTs <100x Avg Cmaxu ATP: ATP endpoint; for hLiMTs <25x Avg Cmax ATP / hLiMTs <25x Avg Cmax HCS / hLiMTs <25x Avg Cmax All: cut-off <25x Avg Cmax; for hLiMTs <100x Avg Cmaxu ATP / hLiMTs <100x Avg Cmaxu HCS / hLiMTs <100x Avg Cmaxu All: cut-off <100x Avg Cmaxu; for hLiMTs <25x Avg Cmax HCS / hLiMTs <100x Avg Cmaxu HCS: HCS endpoints; for hLiMTs <25x Avg Cmax All: all endpoints (ATP and HCS); for hLiMTs Cmax max All / hLiMTs Cmax min All / hLiMTs <10 uM All / hLiMTs <100x Avg Cmaxu All: all endpoints; for hLiMTs Cmax max All: Cmax max used; for hLiMTs Cmax min All: Cmax min used; for hLiMTs <10 uM All: cut-off <10 uM
HepaRG spheroids = assay: Combined HCI (HCS) and cellular ATP 3D assay in HepaRG spheroids; conditions: for HepaRG <25x Avg Cmax ATP / HepaRG <100x Avg Cmaxu ATP: ATP endpoint; for HepaRG <25x Avg Cmax ATP / HepaRG <25x Avg Cmax HCS / HepaRG <25x Avg Cmax All: cut-off <25x Avg Cmax; for HepaRG <100x Avg Cmaxu ATP / HepaRG <100x Avg Cmaxu HCS / HepaRG <100x Avg Cmaxu All: cut-off <100x Avg Cmaxu; for HepaRG <25x Avg Cmax HCS / HepaRG <100x Avg Cmaxu HCS: HCS endpoints; for HepaRG <25x Avg Cmax All: all endpoints (ATP and HCS); for HepaRG Cmax max All / HepaRG Cmax min All / HepaRG <10 uM All / HepaRG <100x Avg Cmaxu All: all endpoints; for HepaRG Cmax max All: Cmax max used; for HepaRG Cmax min All: Cmax min used; for HepaRG <10 uM All: cut-off <10 uM; for AC50 / minimal effective concentration: Homo sapiens; for HepaRG <25x Avg Cmax ATP / HepaRG <100x Avg Cmaxu ATP / HepaRG <25x Avg Cmax HCS / HepaRG <100x Avg Cmaxu HCS / HepaRG <25x Avg Cmax All / HepaRG Cmax max All / HepaRG Cmax min All / HepaRG <10 uM All / HepaRG <100x Avg Cmaxu All / AC50 / minimal effective concentration: HepaRG; for DILI prediction HepaRG spheroids (HCS-MEC): Microtissue model structural based (HCI), combined HCS and ATP, MEC < 25 × Cmax.tot cut-off
OATP1B1 = conditions: known substrates; cited from earlier work
[18] = test system: HepG2 C3A spheroid, BSEP, Glu/Gal in HepG2 cells, bioactivation; conditions: Bayesian modeling; ref Williams et al. 2019; cited from earlier work
[19] = In vitro Assay, ref Schadt 2015
[20] = In vitro Assay, ref Proctor 2017
[21] = Modeled in vitro assays (cytotoxicity, mitochondrial dysfunction, BSEP), ref Aleo et al. 2019
[22] = HCS endpoints only, 25 × Cmax.tot cut-off

SMILES: O=C(O)Cc1ccccc1Nc1c(Cl)cccc1Cl [diclofenac]
- Human plasma Cmax,u [1]: 0.101 µM
- detection at 10 × Cmax.tot cut-off (PHH 3D spheroids): only detected by one of three donors
- Cytotoxicity HepG2 48 hrs (HepG2): +VE
- DILI +VE (5-8), DILI -VE (-4) ([2]; in vivo): +VE
- DILI severity category (Chen et al. [2016]) ([2]; in vivo): Most
- DILI in vitro assay prediction, Schadt (2015) [3]: +VE
- Cellular toxicity (3T3 cells) [3, 19]: -VE
- Combined Assay [3, 19]: +VE
- GSH adduct HML [3, 19]: +VE
- Hepatocyte cellular toxicity [3, 19]: -VE
- MitoTox 3T3 [3, 19]: -VE
- TDI CYP3A4 [3, 19]: -VE
- hBSEP inhibition [3, 19]: -VE
- Structural based (HCI) (HepG2 cells [4]; In vitro Assay, ref O'Brien 2006): +VE
- DILI in vitro assay prediction, O'Brien (2006) (HepG2 cells [4]): +VE (key: +VE: lowest HCI endpoint IC50 (or in the absence of dose–response < 100 µM) < 30 × total human plasma exposure levels (Cmax.tot))
- Structural based (HCI) (HepG2 cells [5]; In vitro Assay, ref Persson 2013): -VE
- Cluser analysis (HepG2 cells [5]): -VE
- DILI in vitro assay prediction, Persson (2013) (HepG2 cells [5]): -VE
- Structural based (HCI) (HepG2 cells [6]; In vitro Assay, ref Tolosa 2012): +VE
- DILI in vitro assay prediction, Tolosa (2012) (HepG2 cells [6]): +VE
- DILI in vitro assay prediction, Xu (2008) (human hepatocytes): +VE
- Ro2 Hybrid HRM Score [7]: +VE
- PHH/100uM, Proctor (2017) (PHH [8]; 2D PHH, ATP, IC50 threshold 100 µM, ref Proctor et al. 2017): -VE
- PHH ATP <100uM (PHH [8]; [20]): -VE
- hLiMTs ATP <100uM (hLiMTs [9]; [20]): +VE (IC50 threshold of 100 µM)
- hLiMTs/100uM, Proctor (2017) (hLiMTs [9]; hLiMTs, ATP, IC50 threshold 100 µM, ref Proctor et al. 2017): +VE (IC50 threshold of 100 µM)
- hLiMTs ATP <20 x Cmax (PHH spheroids; In vitro Assay, ref Vorrink 2018): +VE (IC20 < 20 × Cmax.tot cut-off)
- DILI in vitro assay prediction, Vorrink (2018) (PHH spheroids): +VE (key: +VE: IC20 < 20 × Cmax.tot cut-off)
- Cmax [10]: 10.1 µM
- fu [11]: 0.010
- Assigned DILI category ([12]; in vivo): 3
- In vivo DILI ([12]; in vivo): +VE
- Cytotoxicity PHH 48 hrs (PHH [13]): +VE
- HMPCC's (hu-MPCC): +VE
- THLE-Null [14]: +VE
- in vitro data EC2<=1x Cmax [15]: +VE
- DILI Score (FDA) (1-8) [16]: 7
- RMPCC's (RMPCC's): +VE
- AC50 (hLiMTs [17]; read-out: ATP endpoint AC50): 62.1 µM
- minimal effective concentration (hLiMTs [17]; read-out: ATP endpoint MEC): 17.2 µM
- AC50 (hLiMTs [17]; read-out: HCS endpoint AC50): 293 µM
- minimal effective concentration (hLiMTs [17]; read-out: HCS endpoint MEC): 45 µM
- DILI prediction hLiMTs (HCS-MEC) (hLiMTs [17]): +VE (MEC < 25 × Cmax.tot cut-off)
- hLiMTs <25x Avg Cmax ATP (hLiMTs [17]): +ve
- hLiMTs <100x Avg Cmaxu ATP (hLiMTs [17]): -ve
- hLiMTs <25x Avg Cmax HCS (hLiMTs [17]): +ve
- hLiMTs <100x Avg Cmaxu HCS (hLiMTs [17]): -ve
- hLiMTs <25x Avg Cmax All (hLiMTs [17]): +ve
- hLiMTs Cmax max All (hLiMTs [17]): +ve
- hLiMTs Cmax min All (hLiMTs [17]): +ve
- hLiMTs <10 uM All (hLiMTs [17]): -ve
- hLiMTs <100x Avg Cmaxu All (hLiMTs [17]): -ve
- HepaRG <25x Avg Cmax ATP (HepaRG spheroids): +ve
- HepaRG <100x Avg Cmaxu ATP (HepaRG spheroids): -ve
- HepaRG <25x Avg Cmax HCS (HepaRG spheroids): +ve
- HepaRG <100x Avg Cmaxu HCS (HepaRG spheroids): -ve
- HepaRG <25x Avg Cmax All (HepaRG spheroids): +ve
- HepaRG Cmax max All (HepaRG spheroids): +ve
- HepaRG Cmax min All (HepaRG spheroids): +ve
- HepaRG <10 uM All (HepaRG spheroids): -ve
- HepaRG <100x Avg Cmaxu All (HepaRG spheroids): -ve
- AC50 (HepaRG spheroids; read-out: ATP endpoint AC50): 78 µM
- minimal effective concentration (HepaRG spheroids; read-out: ATP endpoint MEC): 38.2 µM
- AC50 (HepaRG spheroids; read-out: HCS endpoint AC50): 98.6 µM
- minimal effective concentration (HepaRG spheroids; read-out: HCS endpoint MEC): 42.9 µM
- DILI prediction HepaRG spheroids (HCS-MEC) (HepaRG spheroids): +VE (MEC < 25 × Cmax.tot cut-off)

SMILES: Cc1cc2c(cc1CC(=O)c1sccc1S(=O)(=O)Nc1onc(C)c1Cl)OCO2 [sitaxsentan]
- Human plasma Cmax,u [1]: 0.126 µM
- substrate for hepatic uptake transporter OATP1B1 (OATP1B1): known substrates
- DILI severity category (Chen et al. [2016]) ([2]; LTKB DILIrank category, ref Chen et al. 2016): Most
- DILI severity category (Chen 2016) ([2]; human DILI classification, LTKB DILIrank, ref Chen et al. 2016): Most
- DILI severity category ([2]; human DILI severity, ref Chen et al.): Most
- DILI in vitro assay prediction, Schadt (2015) [3]: +VE
- Partition Hybrid HRM Score ≥4, Aleo (2019) [7, 21]: +VE (Partition Hybrid HRM Score ≥4)
- Partition Hybrid HRM Score ≥8, Aleo (2019) [7, 21]: +VE (Partition Hybrid HRM Score ≥8)
- Rule of Two hybrid HRM Score ≥3, Aleo (2019) [7, 21]: +VE (Rule of Two hybrid HRM Score ≥3)
- Rule of Two hybrid HRM Score ≥8, Aleo (2019) [7, 21]: +VE (Rule of Two hybrid HRM Score ≥8)
- hLiMTs/100xCmax, Proctor (2017) (hLiMTs [9]; hLiMTs, ATP, IC50 < 100 × Cmax.tot, ref Proctor et al. 2017): +VE (IC50 < 100 × Cmax.tot)
- Bayesian Machine Learning DILI prediction, Williams (2019) [18]: +VE
- Cmax [10]: 25.3 µM
- fu [11]: 0.005
- Assigned DILI category ([12]; Chen et al. 2016 or literature alignment, ref Chen et al. 2016): 3
- DILI prediction hLiMTs, HCI alone (hLiMTs [17]; [22]): detection
- minimal effective concentration (hLiMTs [17]; read-out: HCS endpoint MEC): 130 µM
- DILI prediction hLiMTs (HCS-MEC) (hLiMTs [17]): +VE (MEC < 25 × Cmax.tot cut-off)
- DILI prediction hLiMTs, ATP alone (hLiMTs [17]; cellular ATP only, 25 × Cmax.tot cut-off): unpredicted
- hLiMTs <25x Avg Cmax ATP (hLiMTs [17]): -ve
- hLiMTs <100x Avg Cmaxu ATP (hLiMTs [17]): -ve
- hLiMTs <25x Avg Cmax HCS (hLiMTs [17]): +ve
- hLiMTs <100x Avg Cmaxu HCS (hLiMTs [17]): -ve
- hLiMTs <25x Avg Cmax All (hLiMTs [17]): +ve
- hLiMTs Cmax max All (hLiMTs [17]): +ve
- hLiMTs Cmax min All (hLiMTs [17]): +ve
- hLiMTs <10 uM All (hLiMTs [17]): -ve
- hLiMTs <100x Avg Cmaxu All (hLiMTs [17]): -ve
- DILI prediction HepaRG spheroids, HCI alone (HepaRG spheroids; [22]): positive
- HepaRG <25x Avg Cmax ATP (HepaRG spheroids): -ve
- HepaRG <100x Avg Cmaxu ATP (HepaRG spheroids): -ve
- HepaRG <25x Avg Cmax HCS (HepaRG spheroids): +ve
- HepaRG <100x Avg Cmaxu HCS (HepaRG spheroids): +ve (<100x Avg Cmaxu)
- HepaRG <25x Avg Cmax All (HepaRG spheroids): +ve
- HepaRG Cmax max All (HepaRG spheroids): +ve
- HepaRG Cmax min All (HepaRG spheroids): +ve
- HepaRG <10 uM All (HepaRG spheroids): +ve (<10 uM)
- HepaRG <100x Avg Cmaxu All (HepaRG spheroids): +ve (<100x Avg Cmaxu)
- AC50 (HepaRG spheroids; read-out: HCS endpoint AC50): 9.74 µM
- minimal effective concentration (HepaRG spheroids; read-out: HCS endpoint MEC): 8.53 µM
- DILI prediction HepaRG spheroids (HCS-MEC) (HepaRG spheroids): +VE (MEC < 25 × Cmax.tot cut-off)
